In data set [1] the test system is HCT116. The data set can be described thus: Cytotoxicity, cell proliferation assay, HCT116 colon cancer. Conditions: Table 8. It is filed as cell-based. As to the method:
(§1) CellTiter-Glo® Luminescent Cell Viability assay (with Promega CellTiter 96® Luminescent CellTiter-Glo® kit) was used to study the proliferation inhibition by test compounds. Compounds were resuspended in DMSO to make a 25 mM stock suspension. Cells of cancer cell lines or normal tissues were seeded in 96-well plates at 1,500 to 5,000 cells/well overnight. Compounds were 2- or 3-fold diluted serially to obtain 10 concentrations. Then, the drugs were added to the cell wells by Bravo (Agilent) and incubated for 72 hours. The cells were lysed by adding CellTiter-Glo® Reagent (per manufacturer's instructions) and subsequently, the luminescence was read using EnVision® (PerkinElmer).
(§2) The percent of growth was calculated as follows. DMSO-treated cells were employed as vehicle control (High control, HC) and culture medium alone was employed as background (Low control, EC). % growth=100×(Lum sample−Lum EC)/(Lum HC−Lum EC). The ICso was calculated by concentration-response curve fitting using Graphpad Prism.
The cytotoxicity of test compounds in brain (HCN2), colon cancer (HCT116) and normal colon cell (C8-B4) lines was determined using the cell proliferation assay as described in Example 19.

Data set [2] relates to A-172. The data set can be described thus: CellTiter-Glo cell viability assay, A-172. Type of data set: cell-based. Particulars: Homo sapiens, Table 6. On the procedure:
as §1, §2
The inhibition activity of test compounds was determined in A-172, U87MG and 3T3-L1 cell lines.
A CellTiter-Glo® luminescent cell viability assay was performed s described in Example 1.

In data set [3] the test system is U87MG cells. The data set can be described thus: Capase-Glo 317 apoptosis assay. It is filed as cell-based. Conditions: Homo sapiens, U-87 MG, 72 hours. On the procedure: A Capase-Glo® 317 assay was used to determine the apoptosis activity of test compounds in U87MG cells.
Compounds were dissolved in 25 mM DMSO stock solution and serially diluted. DMSO was used as the vehicle control (high control, HC) and culture medium was used as the background (low control LC). The test compounds were applied to plates and spun at 25° C. at 1,000 RPM for 1 min and shaken on a plate shaker for 2 min. Samples (80 nL) of the compounds from the plates were transferred to 384-well cell culture plates using a liquid handler.
Cells were harvested and the cell numbers counted. 40 μL of the cell suspension with the adjusted density was added to 384-well cell culture pates. The final cell density is 1,000 cells/well. Cell culture medium only was used in the low control (LC) samples. The plates were covered with a lid and placed in a 5% CO2 incur at 37° C. for 72 hours.
After incubating for 72 hours, the plates were removed from the incubator and equilibrated at 25° C. for 15 minutes. CellTiter Glo® regen was incubated at 37° C. before the experiments. 40 μL of Capase-Glo® 317 was added into each well to be detected at a 1:1 ratio to culture medium. The plates were then placed at 25° C. for 30 min and read using an EnSpire® Plate Reader.
The % activity remaining was determined using the following formula: % Remaining Activity=[…]×(Lumsample−LumLC)/(LumHC−LUM LC), where HC is obtained from cells treated with 0.1% DMSO only, LC is obtained from culture medium only.

In data set [4] the test system is H2009. Description: CellTiter-Glo cell proliferation assay, H2009. Particulars: Homo sapiens, NCI-H2009, 72 hours, Table 1, read-out: Growth inhibition (IC50). It is filed as cell-based. On the procedure: as §1, §2
Hematological cancer cell lines tested included OCI-AML3, MV-4-11, KG-1, Kasumi-1, K562, THP-1; solid cancer cell lines tested included U87MG, U251, T98G, LN229, A172, H460, H2009, A549; normal cell lines tested included HCN2 and 3T3-L1. […] However, they were not toxic to in vitro cultured normal cells.

Data set [5] deals with 3T3. The data set can be described thus: Cytotoxicity, cell proliferation assay, 3T3. It is filed as cell-based. Conditions: Mus musculus, NIH3T3; Table 9. On the procedure: as §1, §2
The cytotoxicity of test compounds was also determined in glioblastoma (U87MG)), brain (HCN2) and 3T3 cell lines was determined using the cell proliferation assay as described in Example 19.

Data set [6] addresses T1, CRM1 (Homo sapiens, UniProt O14980).
T1 construct: from tissue; host or cells: U87MG-luc orthotopic xenograft tumours in mouse brain
The data set can be described thus: PD effects by IHC in U87MG-luc orthotopic model, CRM1. Conditions: orally three times a week for 2 weeks; vs vehicle control. Type of data set: in vivo, mice. On the procedure: Based on the bioluminescent signal of tumor, mice were randomly assigned to respective groups using a computer-generated randomization procedure, which included vehicle and compound III-treated groups, respectively, with 5 animals per group. Compound III (20 mg/kg) was given orally 3 times a week (on Day 1, 3, 5) for 2 weeks. Animals for IHC study were euthanized at 6 hours after the last dose and perfused with normal saline followed by fixation with 4% paraformaldehyde. Entire brains containing tumors were collected and kept in fixative for 24 hours before proceeding for paraffin block.

Data set [7] in a line: in vivo. Particulars: female, mouse.
For data set [8], the system named is U87MG-luc tumor. Description: U87MG-luc human glioblastoma orthotopic model. Type of data set: in vivo. Conditions: 20 mg/kg orally, 3 times/week, 4 weeks. From the text:
Animals: Female BALB/c Nude mice (Supplied by Beijing AniKeeper Biotech Co., Ltd., 6-8 weeks old/18-22 g) were used. General procedures for animal care and using were in accordance with the standard operating procedures (SOPs) of Pharmaron, Inc.
Grouping and Treatments: Grouping and treatment were started on Day 7 post tumor cells inoculation. Mice were imaged to monitor the tumor growth, then mice were randomly assigned to respective groups using a computer-generated randomization procedure. All test articles were administered orally 20 mg/kg with 3 times/week, for 4 weeks post tumor implantations (n=12 per group).
Cell Culture: The Human glioblastoma U87-luc tumor cell line was maintained in vitro as monolayer culture and used for tumor inoculation
Tumor Inoculation and Randomization: 2.5×10^5 luciferase-expressing U87MG-luc tumor cells suspended in 2 μL MEM medium were injected into the right forebrain by positioning the needle at AP: 2.0 mm, ML: 0.5-1.0 mm, DV: 3.0 mm from bregma. The injection was slowly proceeding over a one-minute period. Upon completing injection, the needle was retained for another minute. Measurement Parameters: Tumor growth (monitored by image analysis), body weight and survival days were recorded.
Termination Criterion: Individual animal was humanely sacrificed by carbon dioxide when body weight loss >20% and animals could not get to adequate food or water.
Statistical Analysis: Data was recorded as means±standard error of the mean for all measurement parameters as study designed. All statistical tests were conducted by SPSS 17.0 statistical software, and the level of significance is set at p<0.05.

The structures appear in SMILES notation.

T1 sequence (O14980 whole entry): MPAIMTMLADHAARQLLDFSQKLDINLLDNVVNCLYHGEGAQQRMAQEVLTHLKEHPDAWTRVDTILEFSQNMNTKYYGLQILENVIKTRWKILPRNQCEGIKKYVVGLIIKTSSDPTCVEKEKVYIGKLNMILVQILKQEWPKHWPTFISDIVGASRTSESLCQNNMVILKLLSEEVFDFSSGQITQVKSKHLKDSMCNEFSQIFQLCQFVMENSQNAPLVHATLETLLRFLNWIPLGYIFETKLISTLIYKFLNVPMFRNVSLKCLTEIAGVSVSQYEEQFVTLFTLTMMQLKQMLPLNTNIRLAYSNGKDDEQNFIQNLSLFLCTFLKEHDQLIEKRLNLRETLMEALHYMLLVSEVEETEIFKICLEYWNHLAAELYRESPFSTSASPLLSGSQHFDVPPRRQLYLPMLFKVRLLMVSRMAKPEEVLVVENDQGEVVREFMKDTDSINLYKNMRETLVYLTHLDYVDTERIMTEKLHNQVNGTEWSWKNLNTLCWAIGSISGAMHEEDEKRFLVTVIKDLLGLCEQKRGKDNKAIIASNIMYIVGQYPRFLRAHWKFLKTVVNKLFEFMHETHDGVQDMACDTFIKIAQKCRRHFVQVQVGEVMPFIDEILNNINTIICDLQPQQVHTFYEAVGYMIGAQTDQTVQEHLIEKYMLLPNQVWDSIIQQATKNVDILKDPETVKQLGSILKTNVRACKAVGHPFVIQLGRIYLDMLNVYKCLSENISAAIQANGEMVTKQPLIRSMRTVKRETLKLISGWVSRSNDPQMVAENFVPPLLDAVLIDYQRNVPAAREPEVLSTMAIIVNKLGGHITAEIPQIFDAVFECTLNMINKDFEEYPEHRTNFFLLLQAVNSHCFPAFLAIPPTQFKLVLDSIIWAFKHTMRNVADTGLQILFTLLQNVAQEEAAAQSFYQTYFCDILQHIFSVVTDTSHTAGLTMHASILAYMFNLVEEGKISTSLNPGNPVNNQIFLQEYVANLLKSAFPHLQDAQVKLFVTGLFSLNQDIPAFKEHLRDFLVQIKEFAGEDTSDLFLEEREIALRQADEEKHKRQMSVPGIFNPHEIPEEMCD

Regarding `O=C(/C=C\n1cnc(-c2cc(C(F)(F)F)cc(S(F)(F)(F)(F)F)c2)n1)NNc1cnccn1` [Compound I, (Z)-3-(3-(3-(pentafluorosulfanyl)-5-(trifluoromethyl)phenyl)-1H-1,2,4-triazol-1-yl)-N′-(pyrazin-2-yl)acrylohydrazide], the IC50 was 5.96 µM in data set [1] (Homo sapiens, HCT-116); 0.407 µM in data set [2]; 0.521 µM in data set [4]; above 50 µM in data set [5]. Further, the “HCT116 Max % inh” value in data set [1] worked out at 88%. For the same compound, the EC50 in data set [3] came out at 16 µM. For the same compound, in data set [3] (U87MG), the maximal response (Emax) stood at 325%.

As to `CC(C)(C)C(=O)NNC(=O)/C=C\n1cnc(-c2cc(C(F)(F)F)cc(S(F)(F)(F)(F)F)c2)n1` [Compound III, (Z)-3-(3-(3-(Pentafluorosulfanyl)-5-(trifluoromethyl)phenyl)-1H-1,2,4-triazol-1-yl)-N′-pivaloylacrylohydrazide], in data set [6], the “expression of CRM1 in tumors (IHC)” value is “significantly decreased”. The compound also had an MTD in data set [7] below 25 mg/kg. In data set [8], the “bodyweight loss (individual animal)” value is recorded as “less than 10%”, the “medium survival time (MST)” value amounted to 47 days and the tolerability result is “well tolerated by most animals”. In addition, in data set [8] (end of treatment period), the “reduction in bioluminescence signal compared with the vehicle control group” value was 99%.

The values above are taken from patent publication US11767313B2, “Compounds as nuclear transport modulators and uses thereof” (XWPHARMA LTD., priority 2018, dated 2023).
